Experimental data as given in article PMC11124362, “Metabolism, Disposition, Excretion, and Potential Transporter Inhibition of 7–16, an Improving 5-HT2A Receptor Antagonist and Inverse Agonist for Parkinson’s Disease” (Molecules, 2024).

How the values were obtained:
[1] = target: T1, OAT3 (Homo sapiens, UniProt Q8TCC7)
T1 sequence (Q8TCC7 1-542): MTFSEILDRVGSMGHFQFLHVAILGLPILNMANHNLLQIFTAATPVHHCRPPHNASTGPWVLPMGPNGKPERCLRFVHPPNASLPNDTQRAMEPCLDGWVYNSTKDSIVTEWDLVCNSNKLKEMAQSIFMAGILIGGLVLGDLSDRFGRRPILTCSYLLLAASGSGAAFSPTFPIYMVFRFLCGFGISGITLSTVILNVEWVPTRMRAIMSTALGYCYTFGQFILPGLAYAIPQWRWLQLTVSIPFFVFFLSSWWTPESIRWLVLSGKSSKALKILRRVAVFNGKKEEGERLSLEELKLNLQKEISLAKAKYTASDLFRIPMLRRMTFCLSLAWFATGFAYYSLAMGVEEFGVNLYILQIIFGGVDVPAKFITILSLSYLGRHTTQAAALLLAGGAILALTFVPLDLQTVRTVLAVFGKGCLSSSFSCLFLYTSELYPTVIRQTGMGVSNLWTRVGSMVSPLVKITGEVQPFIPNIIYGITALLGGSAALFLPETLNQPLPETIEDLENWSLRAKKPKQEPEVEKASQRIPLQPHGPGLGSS

[2] = target: T2, OATP1B3 (Homo sapiens, UniProt Q9NPD5)
T2 sequence (Q9NPD5 1-702): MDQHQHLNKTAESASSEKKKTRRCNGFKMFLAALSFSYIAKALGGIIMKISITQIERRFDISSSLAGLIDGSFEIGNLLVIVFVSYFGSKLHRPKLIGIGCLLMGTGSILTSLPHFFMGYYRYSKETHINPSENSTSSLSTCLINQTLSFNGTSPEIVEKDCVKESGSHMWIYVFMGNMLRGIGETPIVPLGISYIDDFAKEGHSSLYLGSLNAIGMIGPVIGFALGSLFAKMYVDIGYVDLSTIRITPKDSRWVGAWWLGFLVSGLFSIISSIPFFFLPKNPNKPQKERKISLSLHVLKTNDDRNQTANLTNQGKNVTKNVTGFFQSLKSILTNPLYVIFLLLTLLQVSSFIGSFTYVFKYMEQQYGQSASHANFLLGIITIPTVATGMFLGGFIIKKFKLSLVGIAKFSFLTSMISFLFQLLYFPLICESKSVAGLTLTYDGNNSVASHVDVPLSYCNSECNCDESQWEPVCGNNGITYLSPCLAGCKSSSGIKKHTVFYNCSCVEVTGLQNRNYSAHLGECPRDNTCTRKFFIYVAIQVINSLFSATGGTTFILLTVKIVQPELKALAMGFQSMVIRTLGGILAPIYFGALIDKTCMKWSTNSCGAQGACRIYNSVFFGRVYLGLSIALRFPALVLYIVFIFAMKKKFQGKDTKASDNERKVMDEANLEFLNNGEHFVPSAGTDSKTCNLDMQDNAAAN

[3] = test system: CYP2C19; parameters: method as in PMID 35279606; conditions: previous study; read-out: CYP2C19 inhibition IC50; cited from earlier work
[4] = test system: CYP2C9; parameters: method as in PMID 35279606; conditions: previous study; read-out: CYP2C9 inhibition IC50; cited from earlier work
[5] = test system: 5-HT2A receptors; parameters: method as in PMID 35279606; conditions: head twitches test in rats; cited from earlier work
[6] = Excretion and metabolite identification in urine and feces of intact rats; assay type: in vivo, Sprague-Dawley rats; conditions: intact rats, 0–168 h, oral 3 mg/100 µCi/kg
Procedure: In the urine and feces excretion experiment, six rats (3 females and 3 males) were administered a single oral dose of [^14C]7–16 at 3 mg/100 µCi/kg. Urine, feces and cage washing/cleaning solution samples were collected from 0 to 168 h following drug administration at the following time intervals: 0–8, 8–24 h (0–24 h for feces), 24–48, 48–72, 72–96, 96–120, 120–144, and 144–168 h. In the biliary excretion experiment, 8 rats using a bile duct cannula (BDC) (4 females and 4 males) were administered a single oral dose of [^14C]7–16 at 3 mg/100 µCi/kg. Bile, urine, feces, and cage washing solution were collected from before and 0–72 h after oral administration at the following time intervals: 0–4, 4–8 (urine 0–8), 8–24 (feces 0–24), 24–48, and 48–72 h. All samples were collected and refrigerated at −20 °C until determination of the radioactive concentrations by liquid scintillation counter (Perkin Elmer Corporation, Waltham, MA, USA). Urine, feces, and bile samples at each time period were mixed by equal percentages of either volume or weight. After the mixed samples were treated, the radio-profiles and metabolite identification in the bile, urine, and feces samples were carried out by LC-RAM and UPLC-Q Exactive HRMS, and the TRA% of each metabolite in plasma and the percentage of dose (dose%) of each compound in urine, feces, and bile samples were calculated.

[7] = target: T3, OCT2 (Homo sapiens, UniProt O15244)
T3 sequence (O15244 1-555): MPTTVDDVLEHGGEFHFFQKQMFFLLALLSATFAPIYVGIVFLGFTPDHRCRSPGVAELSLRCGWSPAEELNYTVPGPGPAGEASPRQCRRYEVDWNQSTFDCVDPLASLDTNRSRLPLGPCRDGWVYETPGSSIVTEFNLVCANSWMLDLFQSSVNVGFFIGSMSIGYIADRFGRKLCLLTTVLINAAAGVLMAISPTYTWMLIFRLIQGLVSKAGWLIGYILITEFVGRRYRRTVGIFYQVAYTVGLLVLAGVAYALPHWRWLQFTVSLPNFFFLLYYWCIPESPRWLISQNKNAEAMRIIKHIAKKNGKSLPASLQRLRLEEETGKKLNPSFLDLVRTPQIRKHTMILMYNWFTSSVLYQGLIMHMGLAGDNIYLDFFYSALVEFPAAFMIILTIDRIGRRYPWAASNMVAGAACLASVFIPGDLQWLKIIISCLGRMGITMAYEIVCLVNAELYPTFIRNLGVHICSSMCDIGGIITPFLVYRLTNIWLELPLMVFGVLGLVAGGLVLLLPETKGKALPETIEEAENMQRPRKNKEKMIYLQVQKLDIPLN

[8] = target: 5-HT2A receptor; parameters: method as in PMID 35279606; conditions: cited from earlier work

In the case of `CN1CCC(N(Cc2ccc(F)cn2)C(=O)NCc2ccc(OCC(F)(F)F)cc2)CC1` [7–16, 3-(4-(2,2,2-trifluoroethoxy)benzyl)-1-((5-fluoropyridin-2-yl)methyl)-1-(1-methylpiperidin-4-yl) urea], the IC50 [1] is listed as greater than 100 µM, the IC50 [2] is listed as 89.5 µM and the IC50 [3] is listed as greater than 62.9 µM. For the same compound, the IC50 [4] was greater than 62.9 µM, the “potency for blocking 5-HT2A receptors relative to pimavanserin” value [5] was “at least four times more potent than pimavanserin” and the “recovery of radioactivity in cage rinse/wash, percent of dose” value [6] was 4.06%. The “recovery of radioactivity in feces, percent of dose” value [6] was 55.0%, the “recovery of radioactivity in urine, percent of dose” value [6] was 39.9% and the “total recovery of radioactivity, percent of administered dose” value ([6]; mean of both sexes) was 98.9%. For the same compound, the IC50 [7] was 72.5 µM, the IC50 ([8]; previous study, read-out: 5-HT2A inverse agonist activity IC50) was 2.1 nM and the “fold higher inverse agonist activity than pimavanserin” value ([8]; versus pimavanserin) was 23 fold.
